Assay results from US20250228971A1, “DESIGN AND CONSTRUCTION OF EVOLUTIONARY-GUIDED "SELECTION GENE DRIVE" THERAPY” (THE PENN STATE RESEARCH FOUNDATION, priority 2022, published 2025).

Columns and labels:
[1] = system: EGFR L858R transformed cell population; experiment: Prototype dual-switch selection drive in vitro (FIG. 3); type: cell-based
Source text: The dual-switch drive engineers the evolutionary dynamics of an EGFR L858R transformed cell population in vitro. […] Rimiducid is removed to inactivate switch 1 driven drug resistance in the gene drive cell.

PC9 cell line = experiment: Switch 2 sensitivity of cancer cell lines (PC9); type: cell-based
Source text: (§1) Personalize switch 2 designs for different NSCLC tumors. Quantitative models (FIG. 5) have identified the extent of switch 2 bystander driven killing as a key factor in gene drive success. This effect is larger in from spatial systems (2D/3D) (FIG. 10). Pharmacologically, the toxin responsible for the bystander effect must be diffusible and have a half-life on the order of hours to be evolutionarily useful. Prototypes used here meet these transport constraints, but some cancer cell types display differential biological sensitivity to distinct switch 2 metabolites. […] Cell and organoid type specificity in Switch 2 designs is assessed in a larger number of genetically defined NSCLC cell line (FIGS. 8 and 10).

[2] = system: RET fusion driven cancer cell line; experiment: Switch 2 sensitivity of cancer cell lines (RET line); type: cell-based
Source text: as §1

[3] = system: mixed wild-type and S2 vCyD BaF3 cells; experiment: Enzyme-prodrug bystander assay (vCyD, BaF3); type: cell-based, murine; conditions: 1 mM 5-FC
Procedure: Enzyme-prodrug bystander assays (vCyD and vNfsA). To evaluate the S2 vCyD system, populations of wild-type and cytosine deaminase-expressing BaF3 cells were mixed at defined ratios and seeded at 30k/well in 96-well plates in triplicate, and 1 mM 5-FC was added. Cell viability was measured after 48 hours using CellTiter-Glo and normalized to untreated controls. Similarly, wild-type and S1vEGFRosi-S2vCyD PC9 cells were mixed, seeded at 20k/well, and treated with 1 mM 5-FC.

[4] = system: EGFR+ BaF3 tumors expressing S2 vCyD; experiment: In vivo cytosine deaminase activity; parameters: species or system mice; conditions: daily dosing of 5-FC
Procedure: In vivo cytosine deaminase activity. Mice were randomized into three arms (five mice/arm).
Tumors were allowed to grow for 12 days, and then once-daily treatment was initiated. The wild-type arm and one of the S2 vCyD arms received 800 uL 500 mg/kg 5-FC via ip injection. The second S2 vCyD arm received 800 uL vehicle control (sterile PBS). Tumor volumes were measured every other day.

[5] = system: mixed-population PC9 tumors; experiment: Gene drive in PC9 tumors in vivo
Procedure: To test this, mixtures of 50% gene drive and 50% resistant PC9 cells were generated to reflect a possible population structure at the beginning of Switch 2. These pooled populations were grafted in mice. The mice were then treated with Switch 2 drugs (osimertinib and 5-FC) with or without concurrent Switch 1 engagement (dimerizer).
Finally, these findings were performed in a full-term gene drive experiment in vivo.

[6] = system: phospho-EGFR and phospho-ERK; experiment: Immunoblotting of EGFR/MAPK signaling in PC9 cells; type: cell-based, human; conditions: erlotinib-treated S1 vEGFRerl PC9 cells, dimerizer added
S1 vEGFRerl BaF3 cells = experiment: BaF3 dimerizer-dependence assay (growth rate); type: cell-based, murine; conditions: absence of IL-3; range of dimerizer concentrations
Procedure: BaF3 dimerizer-dependence assays. S1 vEGFRerl BaF3s were seeded in 12-well plates at 100k/well with dimerizer (AP20187, Takara) in triplicate. Cell counts were measured on a hemocytometer every day for four days, and an exponential curve was fit to the data to estimate growth rates.

S1 vEGFRerl BaF3 tumors = experiment: Engineered Switch 1 BaF3 in vivo model (dimerizer-dependence); parameters: species or system mice; conditions: once-daily dimerizer, range of doses, 12 days
Procedure: Engineered Switch 1 BaF3 in vivo models. All animal experiments were conducted under a protocol approved by the Institutional Animal Care and Use Committee. In the dimerizer-dependence in vivo experiment, S1 vEGFRerl BaF3 cells were subcutaneously grafted on both flanks (3.5M/flank) of NOD-SCID mice (Jackson Labs). Mice were randomized into four arms (0, 0.1, 1, and 10 mg/kg dimerizer) of 3 mice each. Mice received 100 uL dimerizer or vehicle control (2% Tween in PBS) once daily via intraperitoneal injection. Tumor volumes were measured with calipers following 12 days of treatment.

[7] = system: S1 vEGFRerl EGFR+ NSCLC PC9 cells; experiment: Erlotinib dose response in Switch 1 PC9 cells; type: cell-based, human; conditions: erlotinib with or without dimerizer
Procedure: Drug dose response assays. In general, all 1C50 measurements were conducted similarly. Cells were seeded in 96-well plates at 3k/well triplicate. Adherent cells were given 24 hours before the addition of drug. Cell viability was measured three days after drug treatment using CellTiter-Glo 2.0 (Promega) and luminescence values were normalized to vehicle control conditions.

[8] = system: Early passage wild-type PC9 cells; experiment: Early passage wild-type PC9 culture in EGFR inhibitors; type: cell-based; conditions: even at high concentrations
[9] = system: mixed-population EGFR+ BaF3 tumors; experiment: Gene drive in BaF3 tumors in vivo; parameters: species or system mice; conditions: tumors lacking gene drive cells, daily erlotinib
[10] = system: PC9 cells transduced with EGFR variant library; type: cell-based, human
[11] = system: pooled sensitive, resistant and immune gene drive PC9 cells; experiment: Immune gene drive growth tracking in PC9 mixed populations; type: cell-based, human; conditions: lacking gene drive cells
CRISPRko PC9 population = type: cell-based, human
[12] = system: RET+ thyroid carcinoma TPC1 cells; experiment: RET gene drive growth tracking in TPC1 mixed populations; type: cell-based, human; conditions: absence of gene drive cells, pralsetinib
Procedure: Gene drive growth tracking. Populations of sensitive, mCherry+ resistant, and GFP+ gene drive cells were mixed together. Except where otherwise noted, mixed populations consisted of 0.5% resistant cells and 5% gene drive cells. Cells were seeded in 24-well plates (1.5M/well for BaF3s and 50k/well for adherent cells) in triplicate, with the exception of the gene-drive titer experiment where 3M/well BaF3s were seeded in 6-well plates in order to maintain sufficient cell numbers for low spike-in conditions. […] For Switch 2 conditions, 500 μM 5-FC replaced dimerizer in the above formulations.
Cell counts were measured every other day. For counts of adherent cells, wells were washed with PBS, trypsinized, and then resuspended in RPMI. Cell suspensions were transferred to microcentrifuge tubes, vortexed, and a small aliquot (6%) was analyzed by flow cytometry (BD Accuri) to get subpopulation cell counts. The remaining cells were spun down (1k g for 5 min), the supernatant was aspirated, and the cell pellet was resuspended in fresh RPMI and seeded onto a new plate. Fresh drug was added immediately. In general, Switch 2 treatment began when the gene drive population exceeded 60% of the day 0 cell counts. Cells were monitored for 2-3 weeks after apparent eradication to ensure that no remaining cells grew back.

[13] = in vivo; cited from earlier work
[14] = system: CD19+ and CD19- PC9 cells; experiment: Immune bystander assay (vCD19); type: cell-based, human; conditions: co-culture with primary T cells and blinatumomab
Procedure: Immune bystander assays (vCD19). PBMCs were sourced from Astarte and T cells were expanded using CD3/CD28 dynabeads (1:100 bead: cell ratio). For the immune bystander experiments, CD19+ and CD19-PC9 cells were seeded 1:1 in 24 wells plates at 60k/well. After 24 hours, 1 ng/mL blinatumomab was added to all wells. At the same time, freshly-thawed T cells were added at the appropriate concentration. Each target: effector ratio was conducted in triplicate. After 48 hours, the supernatant and resuspended adherent cells were pooled and analyzed according to the following staining protocol. Cells were spun down (750 g for 3 min) and resuspended in 50 uL Fc block buffer. After a 10 minute incubation, 100 uL antibody mixture (anti-CD3/FITC and anti-CD19/APC) was added. The cell suspension was incubated at 4C for 20 minutes. After three washes in PBS with 1% BSA, the cell suspension was analyzed by flow cytometry.

With `Nc1nc(=O)[nH]cc1F` [5-FC] the “effect on resistant population when switch 2 is induced” value ([1]; 5-FC added, rimiducid removed, erlotinib maintained) was “kills the resistant population”, the “sensitivity to cytosine deaminase>5-FC pair” value (PC9 cell line) was “more modestly sensitive” and the “sensitivity to cytosine deaminase->5-FC pair” value [2] was “highly sensitive”. The “killing in mixed cultures (bystander effect)” value [3] was “significantly higher killing than expected” and the tumor response [4] was “rapid tumor regression”.
With `CC[C@H](C(=O)N1CCCC[C@H]1C(=O)O[C@H](CCc1ccc(OC)c(OC)c1)c1cccc(OCC(=O)NCC(CNC(=O)COc2cccc([C@@H](CCc3ccc(OC)c(OC)c3)OC(=O)[C@@H]3CCCCN3C(=O)[C@@H](CC)c3cc(OC)c(OC)c(OC)c3)c2)CN(C)C)c1)c1cc(OC)c(OC)c(OC)c1` [dimerizer] the time to progression ([5]; 50% gene drive/50% resistant, osimertinib and 5-FC with temporary dimerizer vs without) was “exhibited a longer time to progression”, the “MAPK signaling (western blot)” value [6] was “rescues MAPK signaling” and the “growth of S1 vEGFRerl BaF3 cells” value (S1 vEGFRerl BaF3 cells) was “Stimulated growth”. The tumor growth (S1 vEGFRerl BaF3 tumors) was “stimulated tumor growth” and the “inducible drug resistance phenotype” value [7] was “causes inducible drug resistance”.
In the case of `C#Cc1cccc(Nc2ncnc3cc(OCCOC)c(OCCOC)cc23)c1` [erlotinib], the population response [8] is reported as “initial regression followed by rapid outgrowth”, the “effect on sensitive EGFR-L858R+ transformed cells” value [1] is reported as “killed” and the tumor dynamics [9] is reported as “initially regressed and then relapsed”.
With `C=CC(=O)Nc1cc(Nc2nccc(-c3cn(C)c4ccccc34)n2)c(OC)cc1N(C)CCN(C)C` [osimertinib] the tumor response ([5]; mouse, in vivo) was “eventually became refractory to osimertinib treatment”, the “time of treatment to osimertinib resistance” value [10] was 2-3 weeks and the “outcome of mixed population” value [11] was “Resistance emerged”. The population response [8] was “initial regression followed by rapid outgrowth” and the population dynamics (CRISPRko PC9 population) was “initial decrease in population size, followed by the outgrowth of resistance”.
For `CO[C@]1(C(=O)N[C@@H](C)c2ccc(-n3cc(F)cn3)nc2)CC[C@H](c2nc(C)cc(Nc3cc(C)[nH]n3)n2)CC1` [pralsetinib], the “outcome of mixed population” value [12] was “selected for pre-existing G810R resistance”.
For `CC[C@H](C(=O)N1CCCC[C@H]1C(=O)O[C@H](CCc1ccc(OC)c(OC)c1)c1cccc(OCC(=O)NCCNC(=O)COc2cccc([C@@H](CCc3ccc(OC)c(OC)c3)OC(=O)[C@@H]3CCCCN3C(=O)[C@@H](CC)c3cc(OC)c(OC)c(OC)c3)c2)c1)c1cc(OC)c(OC)c(OC)c1` [rimiducid], the clinical exposure [13] is listed as 0.1 to 1000 nM and the “effect of rimiducid-induced gene drive population on pre-existing resistance” value ([1]; switch 1, erlotinib maintained) is listed as “inhibits the growth of pre-existing resistance”.
For “blinatumomab: bispecific CD3/CD19 T cell engager”, the “effect on S2 vCD19 (antigen-positive) cells” value [14] was “targeted by the T cells” and the “effect on wild-type, antigen-negative cells (immune bystander activity)” value [14] was “affected as well”.
